How the values were obtained:
[1] = Compatibility study: stability of drug product suspended in CMC vehicle; type: physicochemical; settings: suspension in carboxymethylcellulose sodium (CMC) vehicle
Excerpt: (§1) In the clinic, protocol-specified portions of drug product are suspended in a vehicle consisting of commercially available medium viscosity USP carboxymethylcellulose sodium (CMC) in Sterile Water for Injection (SWFI). CMC is a chemically stable compound that is commonly used in oral pharmaceutical formulations and appears on the FDA list of substances that are Generally Recognized As Safe (GRAS).

[2] = Solubility plot in 2-MeTHF:n-heptane; type: physicochemical; settings: 2-MeTHF:n-heptane solvent mixture, organic solvent or mixture; mixture of 2-MeTHF:n-heptane, at least a 2:1 ratio
Excerpt: In order to further simplify the reaction workup transition, water-miscible THF was replaced with water immiscible 2-MeTHF as the reaction co-solvent with n-heptane, thus eliminating the need for MTBE in the workup. […] This afforded a relatively wide solubility range for both the reaction and the workup while still keeping the solvent volumes at reasonable levels for the telescoped steps.

[3] = Solubility of drug product in water; type: physicochemical; settings: crystalline solid
Excerpt: as §1

[4] = Material B/Form A relative humidity stressing (conversion study); type: physicochemical; settings: approximately 75% R.H. and 41° C.
[5] = Mechanical stressing of Form A, XRPD read-out; type: physicochemical
Procedure: (§2) XRPD patterns were collected with an Inel XRG-3000 diffractometer. An incident beam of Cu Kα radiation was produced using a fine-focus tube and a parabolically graded multilayer mirror. Prior to the analysis, a silicon standard (NIST SRM 640c) was analyzed to verify the Si 111 peak position. A specimen of the sample was packed into a thin-walled glass capillary, and a beam-stop was used to minimize the background from air. Diffraction patterns were collected in transmission geometry using Windif v. 6.6 software and a curved position-sensitive Equinox detector with a 2θ range of 120°.
(§3) XRPD patterns were collected with a PANALYTICAL® X'Pert PRO MPD diffractometer using an incident beam of Cu radiation produced using an Optix long, fine-focus source. An elliptically graded multilayer mirror was used to focus Cu Kα X-rays through the specimen and onto the detector. Prior to the analysis, a silicon specimen (NIST SRM 640c) was analyzed to verify the Si 111 peak position. A specimen of the sample was sandwiched between 3 μm-thick films and analyzed in transmission geometry. A beam-stop and short antiscatter extension were used to minimize the background generated by air. Soller slits for the incident and diffracted beams were used to minimize broadening from axial divergence. Diffraction patterns were collected using a scanning position-sensitive detector (X'CELERATOR® located 240 mm from the specimen and Data Collector software v. 2.2b.
(§4) Form A crystal form of Compound 1 was subjected to (1) mechanical stressing experiments and (2) relative humidity stressing experiments, where the material was subjected to different levels of relative humidity (R.H.) and temperature.

[6] = Relative humidity stressing of Form A, XRPD read-out; type: physicochemical; settings: 7 days
Procedure: as §2, §3, §4

In the case of Fc1cccc(-c2ccc(B3OB(c4ccc(-c5cccc(F)c5)cc4F)OB(c4ccc(-c5cccc(F)c5)cc4F)O3)c(F)c2)c1 [Compound 2, 2,4,6-tris(3,3′-difluorobiphenyl-4-yl)-1,3,5,2,4,6-trioxatriborinane], the melting point is reported as 238 to 241 °C.

With OB(O)c1ccc(-c2cccc(F)c2)cc1F [Compound 1, 3,3′-difluorobiphenyl-4-ylboronic acid] the “stability of the drug product suspended in CMC” value [1] was “at least 48 hours”, the solubility [2] was over 100 mg/mL and the solubility in water [3] was “sparingly soluble”.

In the case of OB(O)c1ccc(-c2cccc(F)c2)cc1F [Material B, 3,3′-difluorobiphenyl-4-ylboronic acid], the “crystal form conversion under humidity stressing” value ([4]; after 4, 7, and 14 days) is reported as “The same mixture” and the “crystal form conversion under humidity stressing” value ([4]; as early as 1 day) is reported as “convert to a mixture of Material B and Form A”.

For OB(O)c1ccc(-c2cccc(F)c2)cc1F [Form A, 3,3′-difluorobiphenyl-4-ylboronic acid], the “XRPD Result after mechanical stressing” value ([5]; compress, 10,000 lb, 5 min., no solvent) was “Form A, low”, the “XRPD Result after mechanical stressing” value ([5]; mill, 30 Hz, 20 min., ACN) was “Form A” and the “XRPD Result after mechanical stressing” value ([5]; mill, 30 Hz, 20 min., MEK) was “Form A”. The “XRPD Result after mechanical stressing” value ([5]; mill, 30 Hz, 20 min., THF) was “Form A”, the “XRPD Result after mechanical stressing” value ([5]; mill, 30 Hz, 20 min., no solvent) was “Form A, low” and the “stability to humidity stressing” value ([6]; 75% R.H., about 40° C.) was “stable”. For the same compound, the “stability to humidity stressing” value ([6]; 75% R.H., room temperature) was “stable”, the “XRPD Result after relative humidity stressing” value ([6]; 75% RH, 40° C.) was “Form A” and the “XRPD Result after relative humidity stressing” value ([6]; 75% RH, RT) was “Form A”. The “stability to humidity stressing” value ([6]; 97% R.H., room temperature) was “stable” and the “XRPD Result after relative humidity stressing” value ([6]; 97% RH, RT) was “Form A”.

From patent US9951089B2, “Methods of treating a fatty acid amide hydrolase-mediated condition” (INFINITY PHARMACEUTICALS, INC., priority 2010, dated 2018)
